According to patent publication US4704361A, “Pharmaceutical compositions containing the cytidine monophospate of 5-acetamido-3,5-dideoxy-D-glycero-D-galactononulosaminic acid and a method for preparing said compound” (Compagnia di Ricerca Chimica S.p.A., priority 1983, dated 1987):
Where two headings read alike, the source gives them in different places. Values belong to the compound of their own block, whether it stands above or below them.

How the values were obtained:
[1] = Adsorption and distribution of labeled CMP-NANA in the rat; format: in vivo; settings: 20 mg/kg i.m.; for Radioactivity level: Blood; for tissue uptake at 0.5 h / tissue uptake at 1 h / tissue uptake at 2 h / tissue uptake at 4 h: im, read-out: Radioactivity level
Experimental: CMP-NANA [9-^3 H] has been purchased from NEN (New England Nuclear, 6072 Dreieich, West Germany).
The rats fasting for about 18 hours, have been treated with CMP-NANA, dissolved in the phosphate buffer, at the dose of 20 mg/kg i.m. (specific activity=1000 mCi/mg). After 30 min., 1 hour, 2 hours and 4 hours periods the animals have been sacrified in the groups of 4, then liver, kidney and brain have been taken away from the animals and accurately weighted.
100 μg samples of the previous organs, and an analogous sample of the blood have been dissolved in Soluene 350 (Packard) and have been counted on the scintillation instrument in the liquid phase, on addition of the scintillating liquid.
The measurements have been quantized using a canal to canal-ratio technique. Table 3 illustrates the averaged results of all measurements.

Striatal gangliosides = assay: Levels of striatal gangliosides of the rat following injuries by kainic acid; format: in vivo; settings: for Striatal gangliosides (NANA content): relative to control = 100%
Experimental: Male rats, Charles River CD, body weight of 180-200 g, have been divided into 4 groups, each group having 20 animals. The first group has been classified as the control group, the second group has been treated with physiological solution, the third group has been treated with kainic acid and the fourth group has been treated with CMP-NANA (20 mg/kg/day, i.p.) and kainic acid.
The treatment with CMP-NANA has been started one week before the treatment with kainic acid and has been continued until the animals have been sacrified.
The animals have been anesthetized with pentobarbital (60 mg/kg i.p.) and then treated with kainic acid (2 μg in 1 μl of the physiological solution), that has been injected into striatum.
The control rats have been treated with an equal volume (1 μl) of the physiological solution.
After 7 days the rats have been sacrified and the striatum has been removed. Each single determination has been performed with the pool of 5 samples. The gangliosides have been extracted and determined (as NANA content) as described previously.

LD50 in albino rats = settings: rat, in vivo, albino rats of 20±1 g
rats = assay: Open field experiment, explorative activity of rat puppies on the 21st day of life; format: in vivo
Experimental: (§1) The study has been performed with 16 couples of the rats Charles River in their reproductive age, selected by uniform weight. On the third day of gestation they have been arbitrarily divided into 4 groups. […] Dietetic treatment have been continued during the entire periods of gestation and nursing.
(§2) Between the 14th and the 21st day of the life, the puppies of the 2nd and the 4th group have been treated with 20 mg/kg of CMP-NANA (Sigma Chemical Co.) i.p., the 1st and the 3rd group have been treated with the equal volume of physiological solution.
(§3) On the 21st day two male puppies from each group have been fixed on the holed table and for 20 minutes placed under the open field experiment. The periods related to the explorative activity have been observed and quantified. At the end of the experiment, the animals have been sacrified by decapitation, and their brains have been removed and examined for the content of the gangliosides (extractions performed by the method of G. Tettamanti et al., Biochim. Biophys. Acta 296, 160-170 (1973) as well as of the glycoproteins (extractions by the method of B. Berra et al., in Membranes in Tumor Growth, Galeotti et al., Eds., Elsevier, pp. 81-87, 1982; F. Omodeo Sale et al., Cell Mol. Biol. 27, 455-458, 1981).

Cerebral gangliosides = Cerebral gangliosides content (NANA) in rats on the 21st day of life; format: in vivo, rat
Description: The study has been performed with 16 couples of the rats Charles River in their reproductive age, selected by uniform weight. On the third day of gestation they have been arbitrarily divided into 4 groups. The two first groups have been fed with a semisynthetic diet that contained 10% of casein. Dietetic treatment have been continued during the entire periods of gestation and nursing.
as §2, §3
(§4) In both cases the content of NANA has been determined.

Cerebral glycoproteins = Cerebral glycoproteins content (NANA) in rats on the 21st day of life; format: in vivo, rat
Experimental: as §1, §2, §3, §4

Neuro-2a cells = assay: CMP-NANA-induced neurite formation (sprouting) in cultured cells; format: cell-based
Experimental: Neuro-2a cells (American Type Culture Collection, Rockville, USA) were seeded at standard conditions (10^4 -10^6 cells/100 mm dish). Incubation time for quantification of sprouting was 24 hours. Thereafter fixation of the cells was performed by means of 3% glutaraldehyde containing buffered saline. Quantitative determination of nerve cell growth was performed with Zeiss D-7082 Micreo-Videomat.
Neurite sprouting was used as the parameter for nerve cell differentiation. The samples fixed in formaline were stained for better contrast.

[2] = test system: Neuro-2a neurine neuroblastoma; assay: In vitro neuronal maturation, index of maturation of neuroblastoma cells; format: cell-based; settings: for Index of maturation (I.M.): standard media 10 ± 2, I.M. = L.P. × N.P.
Experimental: Neuro-2a neurine neuroblastoma (American Type Culture Collection-CCL 131) was grown in the medium consisting of fecal calf serum (Irvine Scientific, Irvine, Ca.), to which non-essential amino acids, antibiotic (5-20 mg %), and bicarbonate (50-100 mg %), were added. The cells were grown routinely on corning plastic tissue-culture flasks.
Cells for assay were plated on corning plastic Petri dishes, in the medium with or without CMP-NANA. In order to examine the role of CMP-NANA on in vitro neuron maturation, it was incorporated into the culture media at the time of plating or 24 or 48 hours postplating. The mean number and length of cell processes were repeatedly determined for a minimum of 100 cells per treatment group, to provide a semiquantitative index of neuron maturation (Table 5).
Index of maturation (I.M.) in Table 5 is expressed as: I.M.=L.P.×N.P., where:
L.P. 10:=the length of process to nearest 10μ
N.P.=Total number of processes
The effects of the various concentrations of CMP-NANA were evaluated with high resolution Nomarski optics.

Storage stability = format: physicochemical; settings: powder, -10° C.
Experimental: A 20 ml aliquot (containing about 8000 units of the enzyme) of the enzyme, CTP (4-5 mmol), N-acetylneuraminic acid (1 mmol) were added in portions, during 2 hours, to the solution (200 ml) of Tris-buffer, Mg^+2, and β-thio-propionic acid. The last three components were present in the concentrations 0.4, 0.04, and 0.002M, respectively. The mixture was incubated at 36°±0.2° C. for 6 hours, then diluted 8 times with water and rised slowly through a column of Dowex 1×4, bicarbonate form, 50-100 mesh (0.6 l resin/mmol of I). First washing was performed with 1 mM ammonium hydroxide, then with 3-4 vol. of a linear gradient from 0.02-2.0M triethylammonium hydrogencarbonate, pH 7.8.

Acid hydrolysis at pH 1 = format: physicochemical; settings: pH 1, 10 min, room temperature
Experimental: [α]D =-11.8° (c=0.2, water).

[3] = normal and hypoproteinic diet, 20 mg/kg i.p.

Radioactivity level ([1]; 30 min): 12.2 % of the administrated dose pe | Radioactivity level ([1]; 1 hr): 5.7 % of the administrated dose pe | Radioactivity level ([1]; 2 hrs): 3.2 % of the administrated dose pe | Radioactivity level ([1]; 4 hrs): 1.9 % of the administrated dose pe | tissue uptake at 0.5 h ([1]; Brain, 30 min): 6.2 %ID/g | tissue uptake at 1 h ([1]; Brain, 1 hr): 7.8 %ID/g | tissue uptake at 2 h ([1]; Brain, 2 hrs): 4.9 %ID/g | tissue uptake at 4 h ([1]; Brain, 4 hrs): 2.4 %ID/g | tissue uptake at 0.5 h ([1]; Kidney, 30 min): 2.6 %ID/g | tissue uptake at 1 h ([1]; Kidney, 1 hr): 5.2 %ID/g | tissue uptake at 2 h ([1]; Kidney, 2 hrs): 3.3 %ID/g | tissue uptake at 4 h ([1]; Kidney, 4 hrs): 1.6 %ID/g | tissue uptake at 0.5 h ([1]; Liver, 30 min): 3.9 %ID/g | tissue uptake at 1 h ([1]; Liver, 1 hr): 4.7 %ID/g | tissue uptake at 2 h ([1]; Liver, 2 hrs): 2.8 %ID/g | tissue uptake at 4 h ([1]; Liver, 4 hrs): 0.9 %ID/g
Structure (SMILES): [3H]C(O)[C@@H](O)[C@@H](O)[C@@H]1O[C@](OP(=O)(O)OC[C@H]2O[C@@H](n3ccc(N)nc3=O)[C@H](O)[C@@H]2O)(C(=O)O)C[C@H](O)[C@H]1NC(C)=O (stereo partly drawn) [[^-3 H]-labeled CMP--NANA]
radioactivity decline in blood and organs (in words) [1]: rapidly diminished in the blood, and more slowly in the organs | radioactivity level of the brain relative to liver and kidney (in words) [1]: inferior to those of the liver and kidney

Structure (SMILES): C=C(C)[C@H]1CN[C@H](C(=O)O)[C@H]1CC(=O)O [kainic acid, reference compound]
Striatal gangliosides (NANA content) (Striatal gangliosides; Group 3: kainic acid alone, 2 μg into striatum): 66%

Structure (SMILES): CC(=O)N[C@H]1[C@H]([C@H](O)[C@H](O)CO)O[C@](OP(=O)(O)OC[C@H]2O[C@@H](n3ccc(N)nc3=O)[C@H](O)[C@@H]2O)(C(=O)O)C[C@@H]1O [CMP-NANA, cytidine monophosphate of 5-acetamido-3,5-dideoxy-D-glycero-D-galactononulosaminic acid]
LD50 (LD50 in albino rats; ip, intraperitoneal): 900 mg/kg | LD50 (LD50 in albino rats; po, per os): 2400 mg/kg | Explorative activity (rats; Group 2: 20% casein + CMP-NANA 20 mg/kg i.p., relative to 2nd group = 100% (reference), p < 0.01-0.001 vs nontreatment (Group 1: 47)): 100% | Explorative activity (rats; Group 4: 10% casein + CMP-NANA 20 mg/kg i.p., relative to 2nd group = 100%, p < 0.01-0.001 vs nontreatment (Group 3: 12)): 52% | explorative activity (in words) (rats; [3]): inhanced in statistically significant manner | Cerebral gangliosides (Cerebral gangliosides; Group 2: 20% casein + CMP-NANA 20 mg/kg i.p., relative to 2nd group = 100% (reference), p < 0.01-0.001 vs nontreatment (Group 1: 75)): 100% | Cerebral gangliosides (Cerebral gangliosides; Group 4: 10% casein + CMP-NANA 20 mg/kg i.p., relative to 2nd group = 100%, p < 0.01-0.001 vs nontreatment (Group 3: 41)): 68% | NANA content in the cerebral gangliosides (in words) (Cerebral gangliosides; [3]): inhanced in statistically significant manner | Cerebral glycoproteins (Cerebral glycoproteins; Group 2: 20% casein + CMP-NANA 20 mg/kg i.p., relative to 2nd group = 100% (reference), p < 0.01-0.001 vs nontreatment (Group 1: 79)): 100% | Cerebral glycoproteins (Cerebral glycoproteins; Group 4: 10% casein + CMP-NANA 20 mg/kg i.p., relative to 2nd group = 100%, p < 0.01-0.001 vs nontreatment (Group 3: 69)): 75% | NANA content in the cerebral glycoproteins (in words) (Cerebral glycoproteins; [3]): inhanced in statistically significant manner | level of gangliosides in the striatum (in words) (Striatal gangliosides; CMP-NANA 20 mg/kg/day i.p. with kainic acid): hindered the diminuation of the level of gangliosides in the striatum | Striatal gangliosides (NANA content) (Striatal gangliosides; Group 4: kainic acid (2 μg into striatum) and CMP-NANA 20 mg/kg/day i.p.): 88% | sprouting of the nerves (in words) (Neuro-2a cells; 50 μg/ml): nearly doubled | dose-response relationship for number of neurites (in words) (Neuro-2a cells; 5-50 μg/ml, 24 hours): close dose-response relationship | increase of sprouting above the original steady-state value (Neuro-2a cells; 30 μ/ml (so in the source)): ~50% | activity at 5 µg/mL (Neuro-2a cells; Mus musculus, N2a, 5 μg/ml, 24 hours, 0 μg/ml = 100 ± 15, read-out: Extent of sprouting): 110 ± 15% | activity at 10 µg/mL (Neuro-2a cells; Mus musculus, N2a, 10 μg/ml, 24 hours, 0 μg/ml = 100 ± 15, read-out: Extent of sprouting): 117 ± 20% | activity at 20 µg/mL (Neuro-2a cells; Mus musculus, N2a, 20 μg/ml, 24 hours, 0 μg/ml = 100 ± 15, read-out: Extent of sprouting): 132 ± 25% | activity at 30 µg/mL (Neuro-2a cells; Mus musculus, N2a, 30 μg/ml, 24 hours, 0 μg/ml = 100 ± 15, read-out: Extent of sprouting): 145 ± 30% | activity at 50 µg/mL (Neuro-2a cells; Mus musculus, N2a, 50 μg/ml, 24 hours, 0 μg/ml = 100 ± 15, read-out: Extent of sprouting): 178 ± 35% | change of I.M. versus standard media (in words) ([2]; 2 μg/ml): doubled | change of I.M. versus standard media (in words) ([2]; 20 μg/ml): ten time higher | Index of maturation (I.M.) ([2]; SM + 1 μg/ml): 20 ± 5 | Index of maturation (I.M.) ([2]; SM + 5 μg/ml): 45 ± 5 | Index of maturation (I.M.) ([2]; SM + 10 μg/ml): 68 ± 10 | Index of maturation (I.M.) ([2]; SM + 20 μg/ml): 92 ± 10 | storage stability (Storage stability): at least one year | hydrolysis in acid (Acid hydrolysis at pH 1): affording CMP and N-acetylneuraminic acid (1.0:1.0 mol)
